Experimental data reported in patent US6730667B2, “Iontophoresis disc pain blocker” (priority 2001, dated 2004).

Test system: overactive nerve fibers
Test: Iontophoretic delivery, practical patient experience
Format: in vivo, human
Settings: ketamine at 2 to 4% or higher, clonidine at 0.2 to 0.4%, unbuffered; positive polarity
Protocol: Once the desired nerve or nerves are identified, a preselected composition of pharmaceuticals 14 is prepared for an administration step 16. Administration may be topical, by methods including gel 18 or spray 20. Iontophoresis is a preferred method. The composition is applied to a patch 22 for iontophoretic administration. Suitable patch structures include both single and multi-layered gel matrix discs. For example, a patch may be arranged with one or more layers of pH buffered electrolytes between drug layers. Ionotphoresis 24 delivers the drugs by application of tiny unipolar or switchable bipolar micro amperage current to the gel disc over the next 24 to 36 plus hours, producing blockade to the excessive nerve firing.
These are ketamine, which is an NMDA receptor blocker, at 2 to 4% or higher, and clonidine, which is an […], at 0.2 to 0.4% concentration, unbuffered. Both have positive polarity, and are positive charged. Selection of positive polarity would push the drug along the pathway of least resistance, finding the involved overactive nerve fibers; and pain blockade would occur.

Compound | suitability for delivery by iontophoresis
CNC1(c2ccccc2Cl)CCCCC1=O (centres unmarked) [ketamine] | work well
Clc1cccc(Cl)c1N=C1NCCN1 [clonidine] | work well
